Results as given in patent publication US20190111040A1, “IN VIVO AMELIORATION OF ENDOGENOUS ANTI-TUMOR AUTOANTIBODIES TARGETING SURFACE TUMOR ANTIGENS VIA LOW-DOSE P4N” (THE JOHNS HOPKINS UNIVERSITY, priority 2016, published 2019).
Structures can show the parent of a compound that is named as a salt.

Assays:
[1] = In vivo effects of P4N on antibody production and B cell differentiation (EGFP immunization); set-up: species or system BALB/c mice
Method: In vivo effects of P4N on antibody production and B cell differentiation. Mice were immunized and boosted with 100 μg EGFP in 100 μl of PBS by intraperitoneal injection once every week and simultaneously treated with or without 5 mg/kg P4N once or three times per week. Blood samples were collected from the retro-orbital plexus of the mice every week. The titers of anti-EGFP antibodies in sera were measured by enzyme-linked immunosorbent assay (ELISA). Briefly, each well of a microtiter plate (Nunc, Wiesbaden, Germany) was coated with 100 ng of rEGFP in 100 μl of PBS. The sera were 6400× diluted by PBS and added to the antigen-coated wells, and their titers were measured as described above. The isotypes of anti-EGFP antibodies in sera were also measured as described previously.
The splenocytes of P4N-treated or untreated mice were harvested and probed with anti-CD19-FITC, anti-CD23-APC, anti-CD38-APC, anti-CD27-APC, anti-CD138-APC, anti-CD5-PE or anti-CD1d-Alexa 647 (BioLegend) antibodies and analyzed by flow cytometry (BD Biosciences). The definitions of the cell types were as described above, except for memory B cells (CD19+CD27+) and plasma cells (CD19+CD138+). The indices of different types of B cell proliferation were calculated as follows: (the number of splenocytes×the percentage of each B cell population in treated splenocytes)/(the number of splenocytes×the percentage of each B cell population in untreated splenocytes).

[2] = system: THP-1 cells; assay: Gene expression profiling of P4N treated THP-1 cells, cDNA microarray; format: cell-based; settings: THP-1 cells following P4N treatment
Method: Gene expression profiling and analysis. Amplification and labeling of RNA was performed with the Illumina®TotalPrep RNA Amplification Kit from Life Technologies (Ambion, Applied Biosystems, Foster City, Calif.) using 150 ng of RNA per sample. Labeled RNA (750 ng) was hybridized to Illumina HT-12 v4 Expression BeadChips (˜48,000 probes) and processed according to the manufacturer's protocol. Expression data underwent quality control and normalization by GenomeStudio (Illumina, San Diego, Calif.). Genes differentially expressed in the cells treated with P4N relative to the untreated cells were identified, with special emphasis given to genes involved in cytokine-cytokine receptor interaction (KEGG pathway). […] The identified genes were subjected to the Database for Annotation, Visualization and Integrated Discovery (DAVID) (david.abcc.ncifcrf.gov/) for Gene Ontology (GO) and KEGG pathway enrichment analysis. A P-value <0.05 was set as threshold of enrichment analysis.

[3] = system: CT-26 cells; assay: Binding of anti-sera to CT-26 tumor tissue and cell surface antigens; set-up: species or system mouse; settings: flow cytometry, FIG. 15
Method: FIG. 15 is a graph showing the affinities of anti-sera against CT-26 cells after different lengths of incubation. Tumor antigens on the surface of CT26 cells were indirectly probed with P4N and PBS anti-sera and FITC-conjugated goat anti-mouse IgG antibody. The specific fluorescent activities were measured by flow cytometry.
Sections of CT-26 tumors from untreated mice were incubated with a 200-fold dilution of normal sera, PBS anti-sera or P4N anti-sera at 4° C. overnight. Sequentially, the sections were recognized using an HRP-conjugated anti-mouse IgG antibody (1:1500 dilution; Santa Cruz Biotechnology), and then developed, counterstained and photographed as described above.
Immunofluorescence analysis of cell surface tumor antigens. CT-26 cells were seeded on glass cover slides, and fixed with 4% (w/w) paraformaldehyde The fixed cells were then incubated with normal sera, PBS anti-sera or P4N anti-sera for 1 h and detected with secondary antibodies conjugated to Alexa Fluor 568 (Molecular Probes, Eugene, USA). Alexa Fluor 488-conjugated Concanavalin A (ConA; Molecular Probes) and DAPI (Molecular Probes) were used to label the plasma membrane and nucleus. The images of tumor antigens recognized by the anti-sera were photographed at a 400× magnification using a Zeiss LSM 510 META confocal microscope (Carl Zeiss, Jena, Germany).

[4] = system: human PBMCs; assay: PBMC proliferation assay; format: cell-based; settings: 48 h
Method: PBMC proliferation assay. Two hundred microliters of PBMCs (5×10^4 cells/ml) were seeded in each well of a 96-well culture plate and treated with increasing concentrations of P4N (0.38, 0.75, 1.5, 3 or 6 μM) for 48 h. The number of viable cells was evaluated by MTT assay and a cell proliferation index was calculated as follows: Proliferation index=(OD595 of sample)/(OD595 of the untreated cells)×100%. PBMCs were also treated with or without P4N (0.75, 1.5 or 3 μM) for 48 h, and probed with anti-CD20 antibodies (Roche, Mannheim, Germany) and FITC-conjugated goat anti-human IgG polyclonal antibodies (SouthernBiotech, Birmingham, Ala.). The percentage of B cells in treated PBMCs was determined by flow cytometry (BD Biosciences, Mountain View, Calif.), and the indices of B cell proliferation were calculated as follows: (the number of PBMCs×the percentage of B cells in treated PBMCs)/(the number of PBMCs×the percentage of B cells in untreated PBMCs).

[5] = system: Human B or T cells; assay: Proliferation of isolated human B or T cells, MTT assay; format: cell-based
Method: FIG. 10 depicts the effects of P4N on cell proliferation. Human B or T cells were isolated from the PBMCs by negative selection using a magnetic sorting device (Miltenyi Biotec, Auburn, Calif.). Cell proliferation was determined by an MTT assay.
Total B-cells were isolated from human PBMCs or mouse splenocytes by negative selection using a magnetic sorting device (Miltenyi Biotec, Auburn, Calif.). Briefly, PBMCs were incubated with a cocktail of biotin-conjugated antibodies, followed by microbead-conjugated anti-biotin Abs for magnetic depletion. B-cells were eluted according to the manufacturer's protocols. Human blood samples were collected from healthy individuals following an IRB-approved protocol and in agreement with the Committee for Research Ethics Board of Chung Shan Medical University Hospital.

With C[C@H](Cc1ccc(OCCN2CCCCC2)c(OCCN2CCCCC2)c1)[C@@H](C)Cc1ccc(OCCN2CCCCC2)c(OCCN2CCCCC2)c1 [P4N, meso-2,3-dimethyl-1,4-bis(3,4-[2-(piperidino)ethoxyphenyl])butane tetrakishydrochloride salt] the “total specific anti-EGFP Ig production” value ([1]; 5 mg/kg P4N once or three times a week with EGFP) was “dramatically enhanced”, the “B cell differentiation to plasma cells” value ([1]; compared to EGFP immunization) was “greatly stimulated” and the “IgG1, IgG2b and IgA production” value ([1]; immunization with P4N) was “significantly increased”. The “up-regulated genes of cytokine-cytokine interaction (KEGG pathway)” value [2] was 26, the “up-regulated genes of growth factor activity (GO: 0008083)” value [2] was 10 and the “binding affinities of EAA” value [3] was “enhanced their binding affinities”. The “increase of PBMC proliferation” value ([4]; depending on the dose of P4N (0.38-6 μM), MTT) was 10-35%, the “proliferation of the B cell population in human PBMCs” value ([4]; flow cytometry) was “significantly increased” and the “proliferation of T-cell-depleted PBMCs” value [5] was “increased the proliferation”. The “proliferation of isolated T cells or B cells” value [5] was “did not induce the proliferation”.
